The values that follow come from PubChem BioAssay (NCI).

Holding throughout (assay): NCI anticancer screen, dose series, 48 h
Experiment [1] has as its system A498 renal.
Experiment [2] concerns BT-549 breast.
Experiment [3] concerns CCRF-CEM leukemia.
The subject of experiment [4] is DU-145 prostate.
Experiment [5] has as its system K-562 leukemia.
Experiment [6] deals with MDA-MB-231 breast.
In experiment [7] the test system is OVCAR-4 ovarian.
In experiment [8] the test system is PC-3 prostate.
In experiment [9] the test system is SF-539 CNS.
Experiment [10] concerns UO-31 renal.

The structures appear in SMILES notation. Values joined by “and” are separate entries in the source; they are usually repeats but may differ in a detail not shown here. Equal entries are not always repeated.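 Growth conditions: 96-well plates. Treatment: test compound, 48 hours, 5 concentrations. Analysis: linear interpolation between bracketing concentrations; unreached endpoints set to highest concentration. At the GI50, growth is halved. At the TGI there is no net growth.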

Regarding `CN1/C(=C\C(I)C(I)C2=[N+](C)c3ccccc3C2(C)C)C(C)(C)c2ccccc21` (stereo unspecified), the GI50 in experiment [1] is 0.178 µM; in experiment [2] it was 0.119 µM; in experiment [3], 0.226 µM; in experiment [4], 0.386 µM; in experiment [5], 0.202 µM; in experiment [6] it was 0.773 µM. In addition, the GI50 in experiment [7] was 0.25 µM; in [8], 0.177 µM; in experiment [9], 0.783 µM; in experiment [10], 0.601 µM. Besides, the TGI in [1] was 1.49 µM; in experiment [2] it was 3.17 µM; in experiment [3], 31 µM; in [4], > 56.7 µM; in experiment [5] it was 14.6 µM; in [6], 20.9 µM. In addition, the TGI turned out to be 22.5 µM in [7], 12.3 µM in experiment [8], 23.6 µM in experiment [9] and 9.75 µM in experiment [10].

With `CCSc1oc(-c2ccccc2)nc1[P+](c1ccccc1)(c1ccccc1)c1ccccc1`, the GI50 was 0.126 µM in [1]; 0.281 µM in [2]; 0.32 µM in [3]; 0.314 µM in experiment [4]; 0.152 µM in experiment [5]; 0.266 µM in experiment [6]. Moreover, the GI50 is 0.217 µM in [7], 0.213 µM in [8], 0.376 µM in experiment [9] and 0.321 µM in experiment [10]. The TGI in experiment [1] was 0.579 µM; in experiment [2], 1.68 µM; in experiment [3], 3.21 µM; in [4], 2.63 µM; in experiment [5], 3.45 µM; in experiment [6], 1.08 µM. Further, the TGI in experiment [7] came out at 1.48 µM; in experiment [8], 1.44 µM; in experiment [9] it was 2.85 µM; in [10], 1.38 µM.

In the case of `CCN1CCN(c2nc(NNC(=O)Cc3ccccc3)nc(N3CCN(C(c4ccccc4)c4ccccc4)CC3)n2)CC1`, the GI50 was 7.3 µM in [1]; 1.67 µM in [2]; 2.51 µM in [3]; 2.73 µM in [4]; 1.8 µM in experiment [5]; 1.99 µM in [6]. Further, the GI50 in [7] was 4.71 µM; in experiment [8] it was 2.51 µM; in experiment [9], 1.78 µM; in experiment [10] it was 1.39 µM. The TGI in experiment [1] was 20.9 µM; in [2] it was 3.61 µM; in experiment [3], 6.71 µM; in [4], 7.2 µM; in [5] it was 4.38 µM; in [6], 3.69 µM. Besides, the TGI in [7] turned out to be 17.5 µM; in experiment [8], 8.61 µM; in experiment [9] it was 3.24 µM; in [10], 2.82 µM.

For the compound `CCCS(=O)(=O)Nc1ccc(F)c(C(=O)c2c[nH]c3ncc(-c4ccc(Cl)cc4)cc23)c1F`, the GI50 in [1] is 1.72 µM and 2.59 µM; in [2], 5.2 µM and > 7.63 µM; in [3], 4.01 µM and 5.42 µM; in experiment [4], 5.62 µM and 7.49 µM; in experiment [5], 4.32 µM and > 8.72 µM; in [6] it was 3.98 µM and 5.16 µM. Moreover, the GI50 in experiment [7] was 6.13 µM and > 7.33 µM; in [8], 2.98 µM and 6.01 µM; in experiment [9], 3.91 µM and 4.51 µM; in experiment [10], 4.96 µM and 4.79 µM. The TGI in experiment [1] is 12.3 µM and > 8.97 µM; in [2], 19.2 µM and > 10 µM; in [3], 23.7 µM and > 10 µM; in experiment [4], 19.7 µM and > 10 µM; in [5], 19.6 µM and > 10 µM; in experiment [6], 18.9 µM and > 10 µM. Further, the TGI was 25.7 µM and > 10 µM in experiment [7]; 16.7 µM and > 10 µM in [8]; 17.1 µM and > 10 µM in experiment [9]; 15.1 µM and > 10 µM in experiment [10].

For `COc1cc(C)c(C(=O)O[C@H]2[C@H](O[C@H]3[C@@H](O)COC(O[C@H]4C[C@H]5[C@@H]6CC=C7C[C@@H](O)CC[C@]7(C)[C@H]6CC[C@]5(C)[C@H]4[C@H](C)C(=O)CCC(C)C)[C@@H]3OC(C)=O)OC[C@@H](O)[C@@H]2O)c(C)c1` (stereo partly specified), the GI50 in experiment [1] was < 0.01 µM; in experiment [2], < 0.01 µM; in [3], < 0.01 µM; in [4] it was 1.52 µM; in experiment [5], < 0.01 µM; in [6], 0.517 µM. For the same compound, the GI50 was 0.571 µM in [7], < 0.01 µM in experiment [8], < 0.01 µM in [9] and < 0.01 µM in experiment [10]. The TGI in [1] was < 0.01 µM; in experiment [2], 5.5 µM; in [3], 0.102 µM; in experiment [4], 21.9 µM; in experiment [5] it was 7.47 µM; in experiment [6] it was 16.1 µM. In addition, the TGI in [7] turned out to be 69.9 µM; in experiment [8], 2.4 µM; in experiment [9] it was 0.0137 µM; in [10], 0.0584 µM.

Consider `COc1ccc(/C=C/c2c(C(=O)/C=C/c3ccc(Cl)cc3)c(C)nc3ccccc23)cc1`, for which the GI50 is 1.89 µM in [1]; 1.83 µM in [2]; 2.03 µM in experiment [3]; 1.69 µM in [4]; 2.19 µM in experiment [5]; 2.38 µM in experiment [6]. Further, the GI50 in [7] was 1.75 µM; in experiment [8], 1.96 µM; in [9], 1.78 µM; in [10], 1.21 µM. Further, the TGI is 3.39 µM in experiment [1]; 3.8 µM in experiment [2]; > 100 µM in [3]; 3.25 µM in experiment [4]; > 100 µM in experiment [5]; 7.82 µM in experiment [6]. The TGI turned out to be 3.97 µM in [7], 5.89 µM in experiment [8], 3.27 µM in [9] and 2.47 µM in experiment [10].

Consider `CN(C)C[C@H]1CC[C@@H](CN(C)C)C1=O`, for which the TGI was > 50 µM in [1]; 14.1 µM in experiment [2]; 5.02 µM in experiment [3]; > 50 µM in experiment [4]; 1.43 µM in [5]; 17.3 µM in [6]. In addition, the TGI in [7] stood at 16.3 µM; in experiment [8] it was 15.7 µM; in experiment [9], 21.4 µM; in experiment [10], 23.1 µM. Besides, the GI50 in experiment [3] is 1.23 µM.
